Assay results: patent publication US9932309B2, “2-oxo-3,4-dihydropyridine-5-carboxylates and their use” (UNIVERSITE DE LILLE 2 DROIT ET SANTE, priority 2014, dated 2018)

Experiments:
[1] = biological target: T1, mTGR5 (Mus musculus, UniProt Q80SS6); test: TGR5/CRE Luciferase Assay (mTGR5); assay type: cell-based; conditions: for EC50: HEK 293 cells co-transfected with pCMV AC6-TGR5m and pCRE TA-Luciferase, overnight incubation; for mTGR5 % trans: percentage of the 10 μM LCA value, HEK 293 cells transfected with mTGR5
T1 construct: expressed in transfected cells; host or cells: HEK293 cells, transiently co-transfected with the pCRE TA-Luciferase reporter
T1 sequence (Q80SS6 1-329): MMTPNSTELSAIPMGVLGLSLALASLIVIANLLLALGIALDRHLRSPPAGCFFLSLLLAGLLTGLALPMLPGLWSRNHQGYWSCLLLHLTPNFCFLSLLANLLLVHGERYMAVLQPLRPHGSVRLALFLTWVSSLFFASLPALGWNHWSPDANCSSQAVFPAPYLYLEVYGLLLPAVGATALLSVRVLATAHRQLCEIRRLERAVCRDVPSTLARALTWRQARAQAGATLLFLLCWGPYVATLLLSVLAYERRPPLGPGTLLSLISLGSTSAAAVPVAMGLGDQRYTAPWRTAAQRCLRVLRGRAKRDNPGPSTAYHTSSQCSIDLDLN
Description: (§1) TGR5/CRE Luciferase Assay
(§2) In the following Tables TGR5 activation by compounds of the invention and subsequent increase in intracellular cAMP were evaluated using a luciferase reporter gene assay. Human embryonic kidney (HEK) 293 cells were transiently co-transfected with pCMV tag4b-TGR5 h (to follow hTGR5 activation) or pCMV AC6-TGR5m (to follow mTGR5 activation) expression plasmids and the pCRE TA-Luciferase reporter plasmid using the JET PEI reagent (Polyplus transfection). Transfected cells were seeded in 96-well plates and incubated overnight with the test compounds at increasing concentrations tested in duplicate. Lithocolic acid (LCA) at 10 μM was used as a positive reference compound. The cAMP-dependent luciferase expression was followed using the BrightGlo reagent according to the manufacturer (Promega) instructions. Luminescence was read with a Mithras plate reader (Berthold) or a Victor3™ V1420 (Perkin Elmer). […] Concentration-response curves were fitted by a nonlinear regression analysis to a 4 parameter logistic equation

[2] = biological target: T2, hTGR5 (Homo sapiens, UniProt Q8TDU6); test: TGR5/CRE Luciferase Assay (hTGR5); assay type: cell-based; conditions: for EC50: HEK 293 cells co-transfected with pCMV tag4b-TGR5h and pCRE TA-Luciferase, overnight incubation; for hTGR5 % trans: percentage of the 10 μM LCA value, HEK 293 cells transfected with hTGR5
T2 construct: expressed in transfected cells; host or cells: HEK293 cells, transiently co-transfected with the pCRE TA-Luciferase reporter
T2 sequence (Q8TDU6 1-330): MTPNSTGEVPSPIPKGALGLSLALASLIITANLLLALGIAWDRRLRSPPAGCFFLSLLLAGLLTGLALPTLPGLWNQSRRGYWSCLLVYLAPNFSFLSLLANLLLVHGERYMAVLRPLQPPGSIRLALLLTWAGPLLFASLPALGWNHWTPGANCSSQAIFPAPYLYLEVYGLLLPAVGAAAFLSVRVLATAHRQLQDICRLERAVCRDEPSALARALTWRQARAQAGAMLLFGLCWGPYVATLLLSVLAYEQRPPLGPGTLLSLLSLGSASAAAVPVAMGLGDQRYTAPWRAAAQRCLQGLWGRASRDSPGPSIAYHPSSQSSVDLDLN
Description: as §1, §2

Row | EC50 [1] [nM] | mTGR5 % trans [1] [%] | EC50 [2] [nM] | hTGR5 % trans [2] [%] | SMILES
1 | 4200 | 77 | 1600 | 74 | COCCN1C(=O)CC(c2ccc(Cl)cc2)C(C(=O)OCc2ccc(OCCC[N+](C)(C)C)cc2)=C1C.[I-] (centres unmarked) [Example 117, 3-[4-[[4-(4-chlorophenyl)-1-(2-methoxyethyl)-6-methyl-2-oxo-3,4-dihydropyridine-5-carbonyl]oxymethyl]phenoxy]propyl-trimethyl-ammonium; iodide]
2 | 11000 | 14 | 6400 | 42 | COCCN1C=C(C(=O)NCc2ccccc2)C(c2ccc(Cl)cc2)CC1=O (centres unmarked) [Compound 33, N-benzyl-4-(4-chlorophenyl)-1-(2-methoxyethyl)-2-oxo-3,4-dihydropyridine-5-carboxamide]
3 | 800 | 85 | 200 | 94 | COCCCN1C(=O)CC(c2ccc(Cl)cc2)C(C(=O)OCc2ccccc2OC)=C1C (centres unmarked) [Compound 71, (2-methoxyphenyl)methyl 4-(4-chlorophenyl)-1-(3-methoxypropyl)-6-methyl-2-oxo-3,4-dihydropyridine-5-carboxylate]
4 | 130 | 102 | 130 | 101 | CC1=C(C(=O)OCc2ccc(OCCS(=O)(=O)O)cc2)[C@@H](c2ccc(Cl)nc2)CC(=O)N1C[C@@H]1CCCO1.N (racemic) [Example 153, Ammonium,2-[4-[[(4S)-4-(6-chloro-3-pyridyl)-6-methyl-2-oxo-1-[[(2R)-tetrahydrofuran-2-yl]methyl]-3,4-dihydropyridine-5-carbonyl]oxymethyl]phenoxy]ethanesulfonate and ammonium,2-[4-[[(4R)-4-(6-chloro-3-pyridyl)-6-methyl-2-oxo-1-[[(2S)-tetrahydrofuran-2-yl]methyl]-3,4-dihydropyridine-5-carbonyl]oxymethyl]phenoxy]ethanesulfonate]
5 | 400 | 88 | 1200 | 69 | COc1ccc(COC(=O)C2=C(C)N(C)C(=O)CC2c2ccc(Cl)cc2)cc1OC (centres unmarked) [Example 83, (3,4-dimethoxyphenyl)methyl 4-(4-chlorophenyl)-1,6-dimethyl-2-oxo-3,4-dihydropyridine-5-carboxylate]
6 | 500 | 71 | 400 | 71 | COCCN1C(=O)CC(c2ccc(Cl)cc2)C(C(=O)OCc2ccccc2F)=C1C (centres unmarked) [Example 84, (2-fluorophenyl)methyl 4-(4-chlorophenyl)-1-(2-methoxyethyl)-6-methyl-2-oxo-3,4-dihydropyridine-5-carboxylate]
7 | 400 | 65 | 600 | 61 | COCCN1C(=O)CC(c2ccc(Cl)cc2)C(C(=O)OCc2cccc(C#N)c2)=C1C (centres unmarked) [Example 94, (3-cyanophenyl)methyl 4-(4-chlorophenyl)-1-(2-methoxyethyl)-6-methyl-2-oxo-3,4-dihydropyridine-5-carboxylate]

The remaining lines, values behind:

Row | SMILES | EC50 [1] [nM] | mTGR5 % trans [1] [%] | EC50 [2] [nM] | hTGR5 % trans [2] [%]
8 | COCCOc1ccc(COC(=O)C2=C(C)N(CCOC)C(=O)CC2c2ccc(Cl)cc2)cc1 (centres unmarked) [Example 119, [4-(2-methoxyethoxy)phenyl]methyl 4-(4-chlorophenyl)-1-(2-methoxyethyl)-6-methyl-2-oxo-3,4-dihydropyridine-5-carboxylate] | 100 | 83 | 100 | 85
9 | CC1=C(C(=O)OCc2ccccc2OCCS(=O)(=O)O)[C@@H](c2ccc(Cl)nc2)CC(=O)N1C[C@@H]1CCCO1.N (racemic) [Example 158, Ammonium, 2-[2-[[(4S)-4-(6-chloro-3-pyridyl)-6-methyl-2-oxo-1-[[(2R)-tetrahydrofuran-2-yl]methyl]-3,4-dihydropyridine-5-carbonyl]oxymethyl]phenoxy]ethanesulfonate and ammonium,2-[2-[[(4R)-4-(6-chloro-3-pyridyl)-6-methyl-2-oxo-1-[[(2S)-tetrahydrofuran-2-yl]methyl]-3,4-dihydropyridine-5-carbonyl]oxymethyl]phenoxy]ethanesulfonate] | 1300 | 97 | 3600 | 74
10 | COCCN1C(=O)CC(c2ccc(Cl)cc2)C(C(=O)OCCc2ccccc2)=C1C (centres unmarked) [Example 110, 2-phenylethyl 4-(4-chlorophenyl)-1-(2-methoxyethyl)-6-methyl-2-oxo-3,4-dihydropyridine-5-carboxylate] | 1600 | 42 | 2300 | 50
11 | COc1ccccc1[C@H](C)OC(=O)C1=C(C)N(C[C@H]2CCCO2)C(=O)C[C@H]1c1ccc(Cl)cc1 [Example 138, 1-(2-methoxyphenyl)ethyl (4S)-4-(4-chlorophenyl)-6-methyl-2-oxo-1-[[(2R)-tetrahydrofuran-2-yl]methyl]-3,4-dihydropyridine-5-carboxylate] | 1110 | 36 | 380 | 70
12 | COCCN1C(=O)CC(c2ccc(Cl)cc2)C(C(=O)OCc2ccc(C#N)cc2)=C1C (centres unmarked) [Example 95, (4-cyanophenyl)methyl 4-(4-chlorophenyl)-1-(2-methoxyethyl)-6-methyl-2-oxo-3,4-dihydropyridine-5-carboxylate] | 300 | 76 | 200 | 78
13 | CC1=C(C(=O)OCc2ccccc2)C(c2ccc(Cl)cc2)CC(=O)N1CCCN(C)C (centres unmarked) [Compound 54, Benzyl 4-(4-chlorophenyl)-1-[3-(dimethylamino)propyl]-6-methyl-2-oxo-3,4-dihydropyridine-5-carboxylate] |  | 0 | 4200 | 10
14 | COc1ccccc1COC(=O)C1=C(C)N(CC2OCCO2)C(=O)CC1c1ccc(Cl)cc1 (centres unmarked) [Compound 72, (2-methoxyphenyl)methyl 4-(4-chlorophenyl)-1-(1,3-dioxolan-2-ylmethyl)-6-methyl-2-oxo-3,4-dihydropyridine-5-carboxylate] | 200 | 92 | 80 | 99
15 | O=C(OCc1ccccc1)C1=CN(CC2CC2)C(=O)CC1c1ccc(Cl)cc1 (centres unmarked) [Compound 29, Benzyl 4-(4-chlorophenyl)-1-(cyclopropylmethyl)-2-oxo-3,4-dihydropyridine-5-carboxylate] | 1500 | 37 | 1260 | 59
16 | COCCN1C(=O)CC(c2ccc(Cl)cc2)C(C(=O)OCc2ccccc2)=C1C (centres unmarked) [Compound 37, Benzyl 4-(4-chlorophenyl)-1-(2-methoxyethyl)-6-methyl-2-oxo-3,4-dihydropyridine-5-carboxylate] | 600 |  | 300 | 
17 | CN1C=C(C(=O)NCc2ccccc2)C(c2ccc(Cl)cc2)CC1=O (centres unmarked) [Compound 26, N-benzyl-4-(4-chlorophenyl)-1-methyl-2-oxo-3,4-dihydropyridine-5-carboxamide] | 1800 | 20 | 4600 | 10
